We go through four compounds from US10815197B2, “N-sulfonyl benzamides as voltage-gated sodium channel inhibitors” (SHANGHAI HAIYAN PHARMACEUTICAL TECHNOLOGY CO., LTD., priority 2016, dated 2020).

Test [1] concerns the target T1, hERG potassium ion channel (Homo sapiens, UniProt Q12809).
T1 construct: host or cells: CHO
Description: Effect on hERG potassium ion channel (CHO hERG cells, manual patch clamp). The class given is cell-based. Particulars: final 10 μM test concentration, read-out: hERG inhibitory concentration IC50. As to the method:
Assay 2: Effect on hERG Potassium Ion Channel 2.1 Cell Culture 2.1.1 Cells used in this experiment were CHO cell lines (supplied by Sophion Bioscience, Denmark) which were hERG cDNA transfectant and stably express hERG channels, and cell progeny was P15. Cells were cultured in medium containing the following ingredients Invitrogen): Ham's F12 medium, 10% (v/v) inactivated fetal bovine serum, […] Geneticin. 2.1.2 CHO hERG cells were grown in Petri dishes containing the above medium and cultured in an incubator containing 5% CO2 at 37° C. CHO hERG cells were transferred onto round glass plates in Petri dishes, and grown on the same culture medium under culture conditions as above for 24 h to 48 h prior to the electrophysiological experiments, and the density of CHO hERG cells on each round glass plate needs to meet the requirements that the vast majority of cells are independent and individual. 2.2 Experimental Solution The following solutions (supplied by Sophion) were used for electrophysiological recording as shown in Table 3. The reagents used in this test were provided by Sigma. [table] 2.3 Electrophysiological Recording System In this experiment, whole-cell current recording was performed using a manual patch clamp system (HEKA EPC-10 signal amplification and digital conversion system, purchased from HEKA Electronic, Germany). The round glass slide, surface of which CHO hERG cells were grown on was placed in an electrophysiological recording slot under an inverted microscope. Extracellular fluid was used for steady perfision in recording slot (approximately 1 ml per minute). A conventional whole-cell patch clamp current recording technique was used in the experiment. Unless otherwise specified, experiments were performed at normal room temperature (25° C.). Cell clamping was at −80 mV. Cell clamping voltage depolarized to +20 mV to activate hERG potassium channel, clamping to −50 mV after 5 sec to eliminate inactivation and generate tail currents. The tail current peak was used as a value for hERG current. The hERG potassium current recorded in the above steps could be superfused for test drug after the steady perfusion state of the extracellular fluid in the recording slot is stabilized until the inhibition of the hERG current by the drug reached a steady state. The coincidence of the last three consecutive current recording lines was generally used as a criterion to determine whether the state is stable. After reaching a steady state, perfused with extracellular fluid until hERG current returned to the value before the drug adding. One or more drugs could be tested on a single cell, or multiple concentrations of the same drug, but needed to be rinsed with extracellular fluid between different drugs. […] 2.4 Compound Treatment and Dilution The compound was firstly dissolved in DMSO to a concentration of 10 mM and then the compound was diluted 1000-fold to the final […] test concentration using an extracellular solution. The final concentration of DMSO in the compound test solution was equal to 0.1%. […] All stock solutions and test solutions were subjected to regular 5-10 minute sonication and shaken to ensure complete dissolution of the compound. 2.5 Data Analysis The test data were analyzed by the data analysis software provided by HEKA Patchmaster (V2x73.2), Microsoft Excel and Graphpad Prism 5.0.

For a further test, the target named is T2, hNav1.7 (Homo sapiens, UniProt Q15858).
T2 construct: host or cells: CHO
T2 sequence (Q15858 whole entry): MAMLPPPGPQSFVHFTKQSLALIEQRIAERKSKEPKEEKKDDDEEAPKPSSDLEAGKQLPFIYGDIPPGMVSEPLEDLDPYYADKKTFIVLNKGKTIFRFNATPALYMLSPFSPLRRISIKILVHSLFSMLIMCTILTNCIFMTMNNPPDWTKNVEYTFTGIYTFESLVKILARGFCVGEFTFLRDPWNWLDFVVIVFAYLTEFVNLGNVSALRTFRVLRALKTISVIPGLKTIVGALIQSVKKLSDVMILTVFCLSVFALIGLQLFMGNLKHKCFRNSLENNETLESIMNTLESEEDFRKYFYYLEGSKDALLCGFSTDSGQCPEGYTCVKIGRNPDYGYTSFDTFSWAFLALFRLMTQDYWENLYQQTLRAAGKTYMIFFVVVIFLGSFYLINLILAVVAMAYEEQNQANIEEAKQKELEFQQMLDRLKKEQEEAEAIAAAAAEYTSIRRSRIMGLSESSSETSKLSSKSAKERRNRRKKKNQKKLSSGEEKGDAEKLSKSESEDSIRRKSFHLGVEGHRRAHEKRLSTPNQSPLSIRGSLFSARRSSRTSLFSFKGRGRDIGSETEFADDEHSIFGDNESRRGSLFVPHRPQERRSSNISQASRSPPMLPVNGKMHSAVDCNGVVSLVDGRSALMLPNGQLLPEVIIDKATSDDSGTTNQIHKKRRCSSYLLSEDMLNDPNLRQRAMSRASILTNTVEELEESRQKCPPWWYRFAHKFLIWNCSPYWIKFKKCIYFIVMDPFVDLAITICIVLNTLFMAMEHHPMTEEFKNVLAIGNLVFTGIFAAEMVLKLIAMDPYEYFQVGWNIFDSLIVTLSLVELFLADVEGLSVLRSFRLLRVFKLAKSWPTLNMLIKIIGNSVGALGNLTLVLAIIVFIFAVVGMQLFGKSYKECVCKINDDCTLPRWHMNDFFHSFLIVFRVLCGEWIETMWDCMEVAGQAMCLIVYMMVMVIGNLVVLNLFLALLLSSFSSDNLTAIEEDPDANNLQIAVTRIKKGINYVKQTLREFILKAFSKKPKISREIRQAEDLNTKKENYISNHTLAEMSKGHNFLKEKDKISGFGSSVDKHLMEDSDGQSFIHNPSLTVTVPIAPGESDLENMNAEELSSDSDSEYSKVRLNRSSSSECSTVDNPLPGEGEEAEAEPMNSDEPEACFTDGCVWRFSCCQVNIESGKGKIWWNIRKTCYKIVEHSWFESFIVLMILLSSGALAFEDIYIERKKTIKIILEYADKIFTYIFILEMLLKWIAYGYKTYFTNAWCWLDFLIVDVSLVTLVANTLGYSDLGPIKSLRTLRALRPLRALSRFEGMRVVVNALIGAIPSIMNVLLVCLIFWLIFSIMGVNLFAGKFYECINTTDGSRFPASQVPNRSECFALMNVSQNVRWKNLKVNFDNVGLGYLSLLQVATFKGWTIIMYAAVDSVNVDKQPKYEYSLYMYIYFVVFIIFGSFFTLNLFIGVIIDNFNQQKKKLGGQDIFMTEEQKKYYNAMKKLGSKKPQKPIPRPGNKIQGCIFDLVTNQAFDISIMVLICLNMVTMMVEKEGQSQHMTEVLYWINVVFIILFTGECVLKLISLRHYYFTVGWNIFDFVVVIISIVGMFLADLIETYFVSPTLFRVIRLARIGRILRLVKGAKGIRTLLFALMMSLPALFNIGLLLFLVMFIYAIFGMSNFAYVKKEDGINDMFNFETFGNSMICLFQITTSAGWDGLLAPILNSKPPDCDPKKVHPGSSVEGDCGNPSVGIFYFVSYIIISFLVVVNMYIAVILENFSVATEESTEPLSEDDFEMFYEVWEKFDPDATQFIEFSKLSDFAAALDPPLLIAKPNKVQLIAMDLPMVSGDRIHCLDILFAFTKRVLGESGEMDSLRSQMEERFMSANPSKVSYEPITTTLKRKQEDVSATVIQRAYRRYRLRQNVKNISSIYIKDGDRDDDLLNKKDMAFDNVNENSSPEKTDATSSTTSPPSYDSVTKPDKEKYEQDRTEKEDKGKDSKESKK
Briefly: Manual patch clamp experiment hNav1.7 (CHO-hNav1.7 stable cell line). Particulars: for inhibition at 0.1 µM: compound at 100 nM, read-out: Inhibition of Nav1.7 100 nM(%); for inhibition at 1 µM: compound at 1000 nM, read-out: Inhibition of Nav1.7 1000 nM(%). The test is classed as cell-based. From the text:
Assay 1: Manual Patch Clamp Experiment of Sodium Ion (hNav1.7, hNav1.5 and hNaV1.8) and Calcium Ion (hCav3.2) Channels
hNav1.7, hNav1.5 Manual Patch Clamp Experiment:
Patch voltage clamp electrophysiology allows for the direct measurement and quantification of current block of voltage-gated sodium channels (NaV's), and allows the determination of the time and voltage-dependence of block which has been interpreted as differential binding to the resting, open and inactivated states of the sodium channel to reflect the compound's inhibitory or activating effects (Hille, B., Journal of General Physiology (1977), 69: 497-515).
Representative compounds of the present invention were subject to a manual patch clamp experiment and the purpose of this study was to test the effect of compounds on this ion channel current on a stable cell line transfected with a specific ion channel using a manual patch clamp method. The used stable cell lines CHO-hNav1.7 and HEK-hNav1.5 were from Genionics and WuXi Apptec (Shanghai) respectively.
Manual patch clamp experimental program is as follows:
(1) Preparation of solutions and compounds: The whole cell patch clamp technique was used to record hNav1.7 and hNav1.5 currents. In the experiment, the composition of extracellular fluid (mM): HEPES: 5, NaCl: 40, KCl: CaCl2: 1, MgCl2: 1, CdCl2: 0.1, TEA-Cl: 20. The pH was adjusted to 7.3 with NaOH and the osmotic pressure was adjusted to 310-320 mOsm with sucrose, filtered and stored at 4° C. The composition of the intracellular fluid (mM): HEPES: 10, NaCl: 10, CsOH: 5, CsF: 140, EGTA: 1. The pH was adjusted to 7.3 with CsOH and the osmotic pressure was adjusted to 280-290 mOsm with sucrose, filtered and stored at −20° C.
The positive control and the test compound were firstly dissolved in 100% DMSO (Sigma-Aldrich, D2650), configured as stock solution at a concentration (100 nM, 1000 nM).) The above stock solution was serially diluted with DMSO prior to the experiment, the solution was further diluted with extracellular solution to obtain the test solution of the desired concentration.
(2) Manual Patch Clamp Experiment: The cell suspension was added to a 35 mm petri dish and placed on an inverted microscope stage. The cells were perfused with an extracellular fluid and the flow rate was 1-2 mL/min after cell adherence. The glass microelectrode was prepared in two steps by a microelectrode puller with an inlet water resistance of 2-5 MΩ. A/D-D/A digital-analog conversion was performed by Digidata 1440 (Molecular Devices) and pCLAMP software (version 10.2, Molecular Devices) for stimulation and signal acquisition; the signal was amplified by patch clamp amplifier (Multiclamp 700B, Molecular Devices), and filtering is 4 KHz.
Two different voltage stimulation procedures were used in the hNav1.7 and hNav1.5 manual patch clamp experiments.
One is the inactivation stimulation program, the clamp potential is set at V1/2 of the corresponding channel, i.e., about 50% of the channels are inactivated, then the voltage is applied to −120 mV for 50 ms, then depolarized to −10 mV for 20 ms leading to sodium current, and finally returned to the clamp potential. This stimulation program can also be called channel state-dependent voltage stimulation program.
The other is the non-inactivation stimulation program, the clamp potential is maintained at −120 mV, voltage stimulation is given to −10 mV for 20 ms leading to sodium current, and finally returned to the clamp potential. That is, all channels have not experienced inactivation status, but activate directly from the resting state under the conditions of the stimulation program.
The time intervals of these two voltage stimulation programs were 10 s. The inhibitory effect of the compound was calculated by the change of the current before and after dosing, the IC50 value was fitted by the Hill equation.
A general note: In patch-clamp work, channel activity is measured electrically.

Test [2] relates to SNL-induced cold allodynia in rats. Briefly: Cold allodynia in SNL (spinal nerve ligation) rats. The test is classed as in vivo, rat. The text has this:
Assay 3: Cold Allodynia in SNL
The experimental animals were male Sprague-Dawley rats, weighing 140-150 g at the beginning of the experiment. The animals were purchased from Slack company, and food and water were supplied ad lib after purchase. Rats were group-housed, four rats/cage, and individually identified by marking on the tail.
Test Compound and Grouping:
Vehicle: 5% dimethylacetamide(Sinopharm Technology), 5% solutol (Sigma) and 90% saline
Positive control: Pregabalin;
Test compound: compound Z-164;
The positive control and solvent composition of the test compound are 5% dimethylacetamide, 5% solutol and 90% saline.
30 mg/kg Compound Z-164:1.23 mL of dimethylacetamide was added to 148.11 mg of compound Z-164, stirred well until fully dissolved, and then 1.23 mL solutol was added and mixed well. Final volume was made up with 90% saline to 21.44 mL and mixed well before oral administration.
30 mg/kg Pregabalin: 1.08 mL of dimethylacetamide was added to 129.48 mg of Pregabalin, stirred well until fully dissolved, and then 1.08 mL solutol was added and mixed well. Final volume was made up with 90% saline to 21.58 mL and mixed well before oral administration.
1.1. Spinal Nerve Ligation (SNL) model • Surgical procedures are performed aseptically. • The surgical instruments (scissors, tweezers, scalpels, surgical cotton, sutures, retractor) are sterilized prior to surgery. • Animals were anesthetized with pentobarbital (50 mg/kg, i.p.). A toe pinch was used to ensure that the animals were fully anesthetized prior to surgery. Put ophthalmic ointment in the animal's eyes to prevent the corneas from drying out. • The fur on the surgical area of animal's lower body was shaved, and the skin of the surgical area was swabbed with 3 rounds of Betadine and 70% ethanol. The skin was allowed to dry before surgery. • A longitudinal incision will be made by scalpel at the lower lumbar and sacral levels, exposing the paraspinal muscles on the left side. The retractor was used to separate the muscles and tissues to expose the vertebra. • The left L5 and L6 spinal nerves will be isolated and tightly ligated with 6-0 silk thread. • The wound was closed with sutures. • The surgical instruments were cleaned, and sterilized by using a glass bead sterilizer. • Animals were placed on the electric blanket after surgery. Inject 5 ml sterile saline to prevent dehydration. The animals were returned to their home cage after fully awake (walking around).
1.2. Baseline Test of Cold Allodynic and Grouping
The baseline of cold allodynic was measured in rats two days before dosing. Use a pipette to apply 100 μl of acetone to the animal's lateral hind paw skin and the time of slapping, flinching, lifting, licking of the affected paw were recorded for one minute. Acetone was applied twice in total and the two applications were 10 minutes apart. The sum of the two times was recorded as cold allodynic time in rats. The rats were grouped randomized according to the results of baseline test of cold allodynic the day before dosing.
1.3. Cold Allodynic Testing
A pipette was used to apply 100 μl of acetone to the animal's lateral hind paw skin two hours after dosing and the time of slapping, flinching, lifting, licking of the affected paw were recorded for one minute. Acetone was applied twice and the two applications were 10 minutes apart. The sum of the two times was recorded as cold allodynic time in rats.
Oral administration was performed two hours before cold allodynic testing.
1.5. Data Collection and Analysis
Data were collected with Excel and analyzed with Prism.

[3] abbreviates: 30 mg/kg p.o., two hours after dosing.

T1 sequence (Q12809 whole entry): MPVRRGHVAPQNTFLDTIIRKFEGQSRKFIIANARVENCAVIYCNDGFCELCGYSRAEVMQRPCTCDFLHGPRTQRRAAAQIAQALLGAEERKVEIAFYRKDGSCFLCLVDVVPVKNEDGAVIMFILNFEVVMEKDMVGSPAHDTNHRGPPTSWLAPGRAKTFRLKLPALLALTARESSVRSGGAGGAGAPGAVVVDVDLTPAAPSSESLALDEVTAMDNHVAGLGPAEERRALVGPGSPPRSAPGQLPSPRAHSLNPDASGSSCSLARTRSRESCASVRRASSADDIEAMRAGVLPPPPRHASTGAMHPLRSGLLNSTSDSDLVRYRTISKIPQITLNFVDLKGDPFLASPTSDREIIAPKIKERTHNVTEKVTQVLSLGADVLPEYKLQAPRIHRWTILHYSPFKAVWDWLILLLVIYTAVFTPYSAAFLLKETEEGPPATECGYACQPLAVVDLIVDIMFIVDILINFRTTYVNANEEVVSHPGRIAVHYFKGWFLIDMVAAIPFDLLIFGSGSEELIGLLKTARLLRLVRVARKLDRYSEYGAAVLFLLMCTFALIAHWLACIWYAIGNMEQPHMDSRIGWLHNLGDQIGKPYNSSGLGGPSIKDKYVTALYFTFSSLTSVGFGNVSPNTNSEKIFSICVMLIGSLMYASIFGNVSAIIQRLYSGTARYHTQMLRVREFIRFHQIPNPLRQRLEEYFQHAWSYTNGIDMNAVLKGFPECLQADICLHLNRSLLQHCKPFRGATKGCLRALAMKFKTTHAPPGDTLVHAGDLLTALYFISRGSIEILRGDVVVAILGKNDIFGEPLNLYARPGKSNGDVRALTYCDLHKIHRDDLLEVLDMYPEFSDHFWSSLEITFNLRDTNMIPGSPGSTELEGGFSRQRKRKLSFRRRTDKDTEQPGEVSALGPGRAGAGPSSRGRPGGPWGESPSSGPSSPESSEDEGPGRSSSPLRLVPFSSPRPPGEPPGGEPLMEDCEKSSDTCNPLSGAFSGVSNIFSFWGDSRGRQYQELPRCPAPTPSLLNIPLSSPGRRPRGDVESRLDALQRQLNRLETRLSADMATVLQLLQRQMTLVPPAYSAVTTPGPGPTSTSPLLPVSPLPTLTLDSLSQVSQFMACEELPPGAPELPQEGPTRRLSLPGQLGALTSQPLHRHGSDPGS

As usually defined, the inhibition is the change of the read-out against control, counted positive when it falls. As to `Cc1cc(N2CCN(Cc3cc(F)c(C(=O)NS(=O)(=O)C4CC4)cc3Cl)CC2)c(F)cc1Cl` [Compound Z-186], in test [1], the IC50 is greater than 10 µM. In addition, on hNav1.7, the inhibition at 0.1 µM amounted to 83.3% and the inhibition at 1 µM was 100%.

With `Cc1cc(N2CCN(Cc3cc(F)c(C(=O)NS(=O)(=O)C4CC4)cc3Cl)CC2)c(C)cc1Cl` [Compound Z-183], in test [1], the IC50 is greater than 10 µM. At hNav1.7, the inhibition at 0.1 µM came out at 90.8% and the inhibition at 1 µM stood at 99.5%.

`Cc1c(Cl)ccc(N2CCN(Cc3cc(F)c(C(=O)NS(=O)(=O)C4CC4)cc3Cl)CC2)c1Cl` [Compound Z-187]: the IC50 in test [1] was greater than 10 µM. Also, on hNav1.7, the inhibition at 0.1 µM is 89.7% and the inhibition at 1 µM was 100%.

For the compound `CC(C)C[C@H](CN)CC(=O)O` [Positive control, Pregabalin, reference compound], in test [2] (setting [3]), the “Anti-allodynia Effect (mean, %)” value is on record as 74.9% and the “Response duration (mean, s) the next day (Baseline)” value is 13.005 s. Also, the “inhibition of SNL-induced cold allodynia (in words)” value in test [2] (30 mg/kg, 2 hr post oral administration) is on record as “inhibition of SNL-induced cold allodynia”. Besides, the “Response duration (mean, s) the first day (Baseline)” value in test [2] (acetone cold allodynia, baseline before dosing) came out at 36.847 s.
